Patent US20060018940A1, “Stabilized antimicrobial composition” (E. I. DU PONT DE NEMOURS AND COMPANY, priority 2004, published 2006)
“And” between values parts separate entries of the source, which are not always exact repeats. Identical values can stand only once. “Also recorded” adds a separate entry of the source. Like-named read-outs stand apart in the source and are kept apart here.

Key:
Format in all cases: cell-based
[1] = test system: Staphylococcus aureus ATCC 6538; test: Bacterial efficacy, suspension test (modified AOAC 965.13), plate count on TSA
[2] = test system: Pseudomonas aeruginosa ATCC 15442; test: as above
[3] = test system: Aspergillus fumigatus ATCC 1098; test: Fungicidal activity (modified AOAC Method 955.17), surviving spores; conditions: for reduction of the fungal bioburden (words): within 15 minutes of treatment, amounts equivalent to those in the tablet solution
Protocol: This assay had several modifications from the published AOAC Fungicidal Activity of Disinfectants Protocol, Method 955.17. Aspergillus fumigatus ATCC 1098 was grown on Malt Extract Agar (available from Becton Dickinson, Billerica, Mass.) plates, and spores were harvested. Spores were stored in filter-sterilized Millipore water at −20° C. The spore preparation used for this experiment is detailed below. A freezer stock of A. fumigatus was defrosted and diluted to obtain an inoculum suspension for this experiment. The inoculum preparation was estimated to be approximately 5×10^6 conidia/mL. The following test solutions were prepared using filter sterilized Millipore water in steam-sterilized 4L bottles:
Water Control: (filter-sterilized water only), pH 6.28.
OXONE Control: 3.78 grams OXONE in 1 gallon (3.8L) sterile water, buffered to pH 4.43 using 0.98 g sodium bicarbonate and +5.25 g 10% H2SO4).
Chlorite Control: 0.26 grams of sodium chlorite in 1 gallon sterile water buffered to pH 4.55 (1.8 g 10% H2SO4).
Buffer Control: sodium bicarbonate, pH adjusted to 4.4.
Chlorine Dioxide: anthium dioxide (stabilized sodium chlorite available from IDI, North Kingston, R.I.) was acidified with HCl.
CLOROX control: 4.17% CLOROX bleach available from Clorox Company, Oakland, Calif. (v/v) in Millipore water by mixing 4.17 mL of Clorox bleach and water up to 100 mL total volume.
Tablet test Solution (Example 21: 2 tablets of Example 6 were dissolved in one gallon (3.8 L) of deionized water. The total tablet weight was 5.13 grams. The pH of the resulting solution was 5.2.
Reaction tubes: 5 mL of each test solution was aliquoted into 25×150 mm test culture tubes, capped and labeled according to Table 10. 9 mL of D/E (Dey/Engley) Neutralizing Broth (available from Becton Dickinson, Billerica, Mass.) was added to each of 28 test tubes and the tubes were capped. Butterfield buffer blanks were arranged for dilution of neutralized samples, and Malt Extract Agar plates were numbered for spore enumerations of the diluted, neutralized samples. With a graduated pipette, 0.5 mL of spore inoculum (approx. 10^6 condia/mL) was added to the first tube of test solution and gently shaken. After 5 and 15 minute exposures to the respective test solutions, samples were gently shaken and 1 mL samples were removed from each reaction mixture (spore-test solution) using an Eppendorf pipette and placed in 9 mL D/E (Dey/Engley) Neutralizing Broth. The inoculum was further diluted to approximately 10^4 condia/mL. Two more reaction tubes (water and OXONE-chlorite) and four Dey/Engley neutralization tubes were prepared to evaluate the efficacy of the tablet solution versus a final inoculum density of 10^3 condia/mL in the reaction tube. Samples were reacted for 15 minutes only. Dilutions of neutralized samples were prepared. Two 100 μL aliquots of all samples in D/E (Dey/Engley) Neutralizing Broth were plated on Malt Extract Agar and incubated at 25 °C until the appearance of colonies. Plates were counted after colonies appeared, roughly 4 days after incubation. Several dilutions of the inoculum spore suspensions were also plated on Malt Extract Agar to obtain an accurate count of viable spores used as inoculum. The samples were incubated at 25° C. and counted after the appearance of colonies, after about 4 days of incubation.
Buffer control data was taken after 15 minutes. CLOROX control data was taken after 5 minutes of treatment.

[4] = test system: Salmonella choleraesuis ATCC 10708
[5] = 30 sec exposure, 1,008 ppm Oxone, 55.5 ppm Chlorite, 23.2 ppm ClO2
[6] = 30 sec exposure, Example 20 = 1,008 ppm Oxone + 55.5 ppm Chlorite, controls 1,008 ppm Oxone, 55.5 ppm Chlorite, 23.2 ppm ClO2, low level of detection 1.0E+01
[7] = 10 min exposure, 1,008 ppm Oxone, 55.5 ppm Chlorite, 23.2 ppm ClO2
[8] = 10 min exposure, 1,008 ppm Oxone, 55.5 ppm Chlorite, 23.2 ppm ClO2, low level of detection 1.0E+01
[9] = 30 sec exposure, 1,008 ppm Oxone, 55.5 ppm Chlorite, 23.2 ppm ClO2, low level of detection 1.0E+01
[10] = 5 min, 1 × 10^6 conidia/mL inoculum in reaction mix, 2 replicates average, 2 Tabs 3.8 L, OXONE 3.78 g/gallon, chlorite 0.26 g/gallon, ClO2 ~23 ppm, 4.17% CLOROX
[11] = 15 min, 1 × 10^6 conidia/mL inoculum in reaction mix, 2 replicates average, 2 Tabs 3.8 L, OXONE 3.78 g/gallon, chlorite 0.26 g/gallon, ClO2 ~23 ppm

Q: Which results are given for “triple salt of potassium monopersulfate, potassium hydrogen sulfate and potassium sulfate [Oxone]”?
A: Δt (log difference test and control densities) [1, 5]: 0.0 log; CFU/mL [1, 6]: 1.52E+06 CFU/mL; Δt (log difference test and control densities) [1, 7]: 0.4 log; CFU/mL [1, 8]: 6.15E+05 CFU/mL; Δt (log difference test and control densities) [2, 5]: 0.0 log; CFU/mL [2, 9]: 9.50E+05 CFU/mL; Δt (log difference test and control densities) [2, 7]: 5.1 log; CFU/mL [2, 8]: 1.00E+01 CFU/mL; Surviving bioburden counts (germinating spores - conidia/mL) [3, 10]: 3.45E+05 conidia/mL; Surviving bioburden counts (germinating spores - conidia/mL) [3, 11]: 5.70E+05 conidia/mL; reduction of the fungal bioburden (words) [3]: not able to reduce the bioburden; also recorded: ineffective in reducing the fungal bioburden

Q: Which CFU/mL [1] does the source give for `[O][Cl+][O-]` [ClO2, chlorine dioxide] here?
A: Its CFU/mL is 1.00E+01 CFU/mL.

Q: What about the “Δt (log difference test and control densities)” value [1] of the same compound?
A: Its value is 5.1 log and 5.2 log.

Q: What about the CFU/mL [2] of the same compound?
A: Its CFU/mL is 1.00E+01 CFU/mL.

Q: What about the “Δt (log difference test and control densities)” value [2] of the same compound?
A: The value was 5 log and 5.0 log and 5.1 log.

Q: And the “Surviving bioburden counts (germinating spores - conidia/mL)” value [3]?
A: The value was 0.00E+00 conidia/mL.

Q: What about the “log A. fumigatus spores killed” value [3] of the same compound?
A: The value was 5 log.

Q: And the CFU/mL [4]?
A: The CFU/mL was 1.00E+01 CFU/mL.

Q: What about the “Δt (log difference test and control densities)” value [4] of the same compound?
A: Its value is 5.1 log and 5.3 log.

Q: What does the source list for sodium chlorite?
A: Δt (log difference test and control densities) [1, 5]: 0.0 log; CFU/mL [1, 6]: 1.23E+06 CFU/mL; Δt (log difference test and control densities) [1, 7]: 0.1 log; CFU/mL [1, 8]: 1.20E+06 CFU/mL; Δt (log difference test and control densities) [2, 5]: −0.1 log; CFU/mL [2, 9]: 1.17E+06 CFU/mL; Δt (log difference test and control densities) [2, 7]: 0.0 log; CFU/mL [2, 8]: 1.21E+06 CFU/mL; Surviving bioburden counts (germinating spores - conidia/mL) [3, 10]: 4.25E+05 conidia/mL; Surviving bioburden counts (germinating spores - conidia/mL) [3, 11]: 6.25E+05 conidia/mL; reduction of the fungal bioburden (words) ([3]; listed as chlorite): not able to reduce the bioburden; reduction of the fungal bioburden (words) ([3]; listed as sodium chlorite): ineffective in reducing the fungal bioburden; Δt (log difference test and control densities) [4, 5]: −0.3 log; CFU/mL [4, 9]: 3.09E+06 CFU/mL; Δt (log difference test and control densities) [4, 7]: 0.2 log; CFU/mL [4, 8]: 1.27E+06 CFU/mL
